Test results: patent US12290519B2, “Anti-inflammatory coupling compound drug, and preparation method therefor and use thereof” (COVAL BIOPHARMA (SHANGHAI) CO., LTD., priority 2021, dated 2025)

Assay: Hydrolysis rate / drug release rate of the compounds (release of JAK inhibitor, HPLC)
Type: physicochemical
Settings: % release of JAK inhibitor from sample in acetonitrile/water=7/3 (v/v), 37° C. constant temperature shaker, sampled days 1-4, HPLC
Procedure: Analysis Method for Hydrolysis Rate of Compounds of the Present Invention
1. Preparation of Standard Working Curve Solution
(§1) About 10 mg of JAK inhibitors (tofacitinib and baricitinib) reference substances were weighed into a 25 mL volumetric flask, acetonitrile/water=7/3 (v/v) was added to dissolve and dilute to the marked volume, serving as a stock solution. The stock solution was diluted with a suitable dilution factor to obtain linear solutions of each concentration: 0.0002 mg/mL, 0.0004 mg/mL, 0.004 mg/mL, 0.04 mg/mL, and 0.08 mg/mL.
as §1, with “(Oclacitinib, Ruxolitinib, Delgocitinib,” for “(tofacitinib”, “Upadacitinib)” for “baricitinib)”
2. Preparation of Sample Solution
About 5 mg of the sample (the compound prepared in the present invention) was weighed into a 20 mL volumetric flask, acetonitrile/water=7/3 (v/v) was added to dissolve and dilute to the marked volume, serving as a stock solution. An appropriate amount of HPLC was loaded as the 0-day sample. The test solution was sealed with a sealing film and placed in a 37° C. constant temperature shaker. The test samples were taken at the same time on days 1, 2, 3, and 4 respectively. the release amount of JAK inhibitor in the sample was calculated according to the sample weight and JAK inhibitor standard curve.
3. Calculation Formula % Release of JAK Inhibitor r=100%×((AJAK Inhibitor−b)/a)/((W/20×M2/M1) wherein • AJAK inhibitor is the peak area of JAK inhibitor in the sample chromatogram • b is the intercept of the standard curve M1 is the molecular weight of the sample a is the slope of the standard curve
W is the sample weight (mg) M2 is the molecular weight of the JAK inhibitor
4. Chromatographic Conditions

Q: For `CC(C(=O)n1ccc2c(-c3cnn([C@H](CC#N)C4CCCC4)c3)ncnc21)c1cccc(Oc2ccccc2)c1` (stereo partly drawn) [Ex. 54, (3R)-3-cyclopentyl-3-(4-(7-(2-(3-phenoxyphenyl)propanoyl)-7H-pyrrolo [2,3-d]pyrimidin-4-yl)-1H-pyrazol-1-yl) propanenitrile], which “Release Rate (%/day)” value is on record?
A: 4.93 %/day

Q: For `CCS(=O)(=O)N1CC(CC#N)(n2cc(-c3ncnc4c3ccn4C(=O)[C@@H](NC(=O)OC(C)(C)C)c3ccccc3)cn2)C1` [Ex. 26, Tert-butyl (S)-(2-(4-(1-(3-(cyanomethyl)-1-(ethylsulfonyl)azetidin-3-yl)-1H-pyrazol-4-yl)-7H-pyrrolo [2,3-d]pyrimidin-7-yl)-2-oxo-1-phenylethyl) carbamate], which “Release Rate (%/day)” value is on record?
A: 36.19 %/day

Q: With `COc1ccc2cc([C@H](C)C(=O)OCn3ccc4c(-c5cnn([C@H](CC#N)C6CCCC6)c5)ncnc43)ccc2c1` [Ex. 87, (4-(1-((R)-2-cyano-1-cyclopentylethyl)-1H-pyrazol-4-yl)-7H-pyrrolo [2,3-d]pyrimidin-7-yl) methyl (S)-2-(6-methoxynaphthalen-2-yl) propanoate] as the compound, how does the “Release Rate (%/day)” value read?
A: 0.01 %/day

Q: For `CNS(=O)(=O)CC1CCC(N(C)c2ncnc3c2ccn3C(=O)c2ccccc2Nc2cccc(Cl)c2C)CC1` (stereo not drawn) [Ex. 41, 1-((Trans)-4-((7-(2-((3-chloro-2-methylphenyl)amino)benzoyl)-7H-pyrrolo [2,3-d]pyrimidin-4-yl) (methyl)amino)cyclohexyl)-N-methyl methanesulfonamide], which “Release Rate (%/day)” value is on record?
A: 4.27 %/day

Q: With `CNS(=O)(=O)CC1CCC(N(C)c2ncnc3c2ccn3C(=O)[C@@H](C)c2ccc3cc(OC)ccc3c2)CC1` (stereo partly drawn) [Ex. 39, 1-((Trans)-4-((7-((S)-2-(6-methoxynaphthalen-2-yl)propanoyl)-7H-pyrrolo [2,3-d]pyrimidin-4-yl) (methyl)amino)cyclohexyl)-N-methyl methanesulfonamide] as the compound, how does the “Release Rate (%/day)” value read?
A: 10.11 %/day

Q: With `CCS(=O)(=O)N1CC(CC#N)(n2cc(-c3ncnc4c3ccn4COC(=O)C(C)c3ccc(-c4ccccc4)c(F)c3)cn2)C1` (stereo not drawn) [Ex. 69, Methyl (4-(1-(3-(cyanomethyl)-1-(ethylsulfonyl)azetidin-3-yl)-1H-pyrazol-4-yl)-7H-pyrrolo [2,3-d]pyrimidin-7-yl) 2-(2-fluoro-[1, 1′-biphenyl]-4-yl) propanoate] as the compound, how does the “Release Rate (%/day)” value read?
A: 0.03 %/day

Q: Which “Release Rate (%/day)” value does the source give for `CCS(=O)(=O)N1CC(CC#N)(n2cc(-c3ncnc4c3ccn4COC3=C(C(=O)Nc4ncc(C)s4)N(C)S(=O)(=O)c4ccccc43)cn2)C1` [Ex. 122, 4-((4-(1-(3-(Cyanomethyl)-1-(ethylsulfonyl)azetidin-3-yl)-1H-pyrazol-4-yl)-7H-pyrrolo [2,3-d]pyrimidin-7-yl)methoxy)-2-methyl-N-(5-methylthiazol-2-yl)-2H-benzo [e] [1, 2] thiazine-3-carboxamide 1,1-dioxide] here?
A: 15.32 %/day

Q: Which “Release Rate (%/day)” value does the source give for `CNS(=O)(=O)C[C@H]1CC[C@H](N(C)c2ncnc3c2ccn3COC(=O)Cc2ccccc2Nc2c(Cl)cccc2Cl)CC1` [Ex. 92, (4-(Methyl ((trans)-4-((N-methylsulfamoyl)methyl)cyclohexyl)amino)-7H-pyrrolo [2,3-d]pyrimidin-7-yl) methyl 2-(2-((2,6-dichlorophenyl)amino)phenyl) acetate] here?
A: 0.82 %/day

Q: For `CNS(=O)(=O)C[C@H]1CC[C@H](N(C)c2ncnc3c2ccn3C(=O)C(C)c2cccc(Oc3ccccc3)c2)CC1` (stereo partly drawn) [Ex. 68, N-methyl-1-((trans)-4-(methyl (7-(2-(3-phenoxyphenyl)propanoyl)-7H-pyrrolo [2,3-d]pyrimidin-4-yl)amino)cyclohexyl) methanesulfonamide], which “Release Rate (%/day)” value is on record?
A: 10.6 %/day

Q: For `CNS(=O)(=O)C[C@H]1CC[C@H](N(C)c2ncnc3c2ccn3C(=O)C(C)c2ccc(CC3CCCC3=O)cc2)CC1` (stereo partly drawn) [Ex. 44, N-methyl-1-((trans)-4-(methyl (7-(2-(4-((2-oxocyclopentyl)methyl)phenyl)propanoyl)-7H-pyrrolo [2,3-d]pyrimidin-4-yl)amino)cyclohexyl) methanesulfonamide], which “Release Rate (%/day)” value is on record?
A: 10.18 %/day

Q: Which “Release Rate (%/day)” value does the source give for `CCC(C(=O)n1ccc2c(-c3cnn(C4(CC#N)CN(S(=O)(=O)CC)C4)c3)ncnc21)c1ccc(N2Cc3ccccc3C2=O)cc1` (stereo not drawn) [Ex. 30, 2-2-(1-(Ethylsulfonyl)-3-(4-(7-(2-(4-(1-oxoisoindolin-2-yl)phenyl)butanoyl)-7H-pyrrolo [2,3-d]pyrimidin-4-yl)-1H-pyrazol-1-yl)azetidin-3-yl) acetonitrile] here?
A: 1.63 %/day

Q: With `CCS(=O)(=O)N1CC(CC#N)(n2cc(-c3ncnc4c3ccn4COC(=O)C(C)c3cccc(Oc4ccccc4)c3)cn2)C1` (stereo not drawn) [Ex. 71, Methyl (4-(1-(3-(cyanomethyl)-1-(ethylsulfonyl)azetidin-3-yl)-1H-pyrazol-4-yl)-7H-pyrrolo [2,3-d]pyrimidin-7-yl) 2-(3-phenoxyphenyl) propanoate] as the compound, how does the “Release Rate (%/day)” value read?
A: 0.01 %/day

Q: Which “Release Rate (%/day)” value does the source give for `COc1ccc2c(c1)c(CC(=O)n1ccc3c(-c4cnn([C@H](CC#N)C5CCCC5)c4)ncnc31)c(C)n2C(=O)c1ccc(Cl)cc1` [Ex. 79, (R)-3-(4-(7-(2-(1-(4-chlorobenzoyl)-5-methoxy-2-methyl-1H-indol-3-yl)acetyl)-7H-pyrrolo [2,3-d]pyrimidin-4-yl)-1H-pyrazol-1-yl)-3-cyclopentylpropanenitrile] here?
A: 7.38 %/day

Q: For `CCS(=O)(=O)N1CC(CC#N)(n2cc(-c3ncnc4c3ccn4COC(=O)c3ccccc3Nc3cccc(Cl)c3C)cn2)C1` [Ex. 81, Methyl (4-(1-(3-(cyanomethyl)-1-(ethylsulfonyl)azetidin-3-yl)-1H-pyrazol-4-yl)-7H-pyrrolo [2,3-d]pyrimidin-7-yl) 2-((3-chloro-2-methylphenyl)amino) benzoate], which “Release Rate (%/day)” value is on record?
A: 0.013 %/day

Q: With `CCS(=O)(=O)N1CC(CC#N)(n2cc(-c3ncnc4c3ccn4C(=O)c3ccccc3Nc3cccc(Cl)c3C)cn2)C1` [Ex. 40, 2-(3-(4-(7-(2-((3-Chloro-2-methylphenyl)amino)benzoyl)-7H-pyrrolo [2,3-d]pyrimidin-4-yl)-1H-pyrazol-1-yl)-1-(ethylsulfonyl)azetidin-3-yl) acetonitrile] as the compound, how does the “Release Rate (%/day)” value read?
A: 0.62 %/day

Q: For `C[C@@H]1CCN(C(=O)CC#N)C[C@@H]1N(C)c1ncnc2c1ccn2COC(=O)Cc1ccccc1Nc1c(Cl)cccc1Cl` [Ex. 51, (4-(((3R, 4R)-1-(2-cyanoacetyl)-4-methylpiperidin-3-yl) (methyl)amino)-7H-pyrrolo [2,3-d]pyrimidin-7-yl) methyl 2-(2-((2,6-dichlorophenyl)amino)phenyl) acetate], which “Release Rate (%/day)” value is on record?
A: 0.35 %/day

Q: For `CCc1cccc2c3c([nH]c12)C(CC)(CC(=O)n1ccc2c(-c4cnn(C5(CC#N)CN(S(=O)(=O)CC)C5)c4)ncnc21)OCC3` (stereo not drawn) [Ex. 25, 2-(3-(4-(7-(2-(1,8-diethyl-1,3,4,9-tetrahydropyrano [3,4-b]indol-1-yl)acetyl)-7H-pyrrolo [2,3-d]pyrimidin-4-yl)-1H-pyrazol-1-yl)-1-(ethylsulfonyl)azetidin-3-yl) acetonitrile], which “Release Rate (%/day)” value is on record?
A: 0.68 %/day

Q: Which “Release Rate (%/day)” value does the source give for `CNS(=O)(=O)C[C@H]1CC[C@H](N(C)c2ncnc3c2ccn3C(=O)Cc2c(C)n(C(=O)c3ccc(Cl)cc3)c3ccc(OC)cc23)CC1` [Ex. 42, 1-((Trans)-4-((7-(2-(1-(4-chlorobenzoyl)-5-methoxy-2-methyl-1H-indol-3-yl)acetyl)-7H-pyrrolo [2,3-d]pyrimidin-4-yl) (methyl)amino)cyclohexyl)-N-methylmethanesulfonamide] here?
A: 22.18 %/day

Q: For `CCc1cccc2c3c([nH]c12)C(CC)(CC(=O)OCn1ccc2c(-c4cnn(C5(CC#N)CN(S(=O)(=O)CC)C5)c4)ncnc21)OCC3` (stereo not drawn) [Ex. 85, Methyl (4-(1-(3-(cyanomethyl)-1-(ethylsulfonyl)azetidin-3-yl)-1H-pyrazol-4-yl)-7H-pyrrolo [2,3-d]pyrimidin-7-yl) 2-(1,8-diethyl-1,3,4,9-tetrahydropyrano [3,4-b]indol-1-yl) acetate], which “Release Rate (%/day)” value is on record?
A: 0.61 %/day

Q: For `CCc1cccc2c3c([nH]c12)C(CC)(CC(=O)OCn1ccc2c(N(C)[C@H]4CN(C(=O)CC#N)CC[C@H]4C)ncnc21)OCC3` (stereo partly drawn) [Ex. 63, (4-(((3R, 4R)-1-(2-cyanoacetyl)-4-methylpiperidin-3-yl) (methyl)amino)-7H-pyrrolo [2,3-d]pyrimidin-7-yl) methyl 2-(1,8-diethyl-1,3,4,9-tetrahydropyrano [3,4-b]indol-1-yl) acetate], which “Release Rate (%/day)” value is on record?
A: 0.02 %/day

Q: Which “Release Rate (%/day)” value does the source give for `CCS(=O)(=O)N1CC(CC#N)(n2cc(-c3ncnc4c3ccn4COC(=O)[C@@H](C)c3ccc4cc(OC)ccc4c3)cn2)C1` [Ex. 61, Methyl (4-(1-(3-(cyanomethyl)-1-(ethylsulfonyl)azetidin-3-yl)-1H-pyrazol-4-yl)-7H-pyrrolo [2,3-d]pyrimidin-7-yl) (S)-2-(6-methoxynaphthalen-2-yl) propanoate] here?
A: <0.01 %/day
